Experiments:
[1] = system: MIA PaCa-2 (KRAS G12C) cells; test: Cellular pERK HTRF assay (KRAS_G12C pERK); type: cell-based, human; conditions: Homo sapiens, MIA PaCa-2, 4 hours incubation, read-out: G12C_pERK
Outline: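 MIA PaCa-2 cells plated overnight, then exposed to compound for 4 h at 37 °C (G12C compounds). Phospho-ERK1/2 measured in lysates by HTRF (665/620 nm) after overnight antibody incubation; IC50 from percent inhibition versus log concentration.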

[2] = molecular target: KRAS G12C (Homo sapiens, UniProt P01116, G12C); test: GDP-GTP exchange assay (KRAS_G12C exchange); type: biochemical; conditions: bodipy-GDP loaded KRAS G12C 2.5 nM, SOS1 150 nM, GppNHp; 2 hours pre-incubation, 2 hours reaction; read-out: G12C_exchange
Outline: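 Fluorescence exchange of bodipy-GDP for GppNHp, SOS1-driven, read at 485/520 nm; IC50 from four-parameter variable-slope fit. Both mutants used 2.5 nM final labelled protein and a 2 h compound pre-incubation. G12C reaction had 500 uM GppNHp and 150 nM SOS1 for 2 h; G12D ran 4 h.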

KRAS G12C, sequence (P01116 1-188 isoform P01116-2 G12C): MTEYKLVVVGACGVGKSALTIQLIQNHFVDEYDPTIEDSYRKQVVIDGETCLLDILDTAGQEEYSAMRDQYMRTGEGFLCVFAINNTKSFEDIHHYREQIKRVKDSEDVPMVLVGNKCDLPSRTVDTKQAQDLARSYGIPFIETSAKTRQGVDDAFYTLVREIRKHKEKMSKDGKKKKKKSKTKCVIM

| Compound | IC50 [1] | IC50 [2] |
| --- | --- | --- |
| Cc1cc2c(nc(N3CC(C)(N(C)C)C3)c3nnn([C@H]4CCN(C(=O)/C=C/CN(C)C)[C@H](CC#N)C4)c32)c(F)c1-c1c(C)c(Cl)cc2[nH]ncc12 [Example 196a, 2-((2S,4S)-4-(7-(6-chloro-5-methyl-1H-indazol-4-yl)-4-(3-(dimethylamino)-3-methylazetidin-1-yl)-6-fluoro-8-methyl-1H-[1,2,3]triazolo[4,5-c]quinolin-1-yl)-1-((E)-4-(dimethylamino)but-2-enoyl)piperidin-2-yl)acetonitrile] | ≤ 0.1 µM | ≤ 0.1 µM |
| Cc1cc2c(nc(N3CC(C)(N(C)C)C3)c3nnn([C@H]4CCN(C(=O)/C=C/C(F)F)[C@H](CC#N)C4)c32)c(F)c1-c1c(C)c(Cl)cc2[nH]ncc12 [Example 197a, 2-((2S,4S)-4-(7-(6-chloro-5-methyl-1H-indazol-4-yl)-4-(3-(dimethylamino)-3-methylazetidin-1-yl)-6-fluoro-8-methyl-1H-[1,2,3]triazolo[4,5-c]quinolin-1-yl)-1-((E)-4,4-difluorobut-2-enoyl)piperidin-2-yl)acetonitrile] | ≤ 0.1 µM | ≤ 0.1 µM |
| C=CC(=O)N1CC[C@H](n2nnc3c(OC[C@@H]4CCCN4C)nc4c(F)c(-c5ccc(F)c(C)c5)c(C)cc4c32)C[C@H]1CC#N [Example 199, 2-((2S,4S)-1-acryloyl-4-(6-fluoro-7-(4-fluoro-3-methylphenyl)-8-methyl-4-(((S)-1-methylpyrrolidin-2-yl)methoxy)-1H-[1,2,3]triazolo[4,5-c]quinolin-1-yl)piperidin-2-yl)acetonitrile] | ≤ 0.1 µM | ≤ 0.1 µM |
| Cc1c(Cl)cc2[nH]ncc2c1-c1c(Cl)cc2c(nc(N3CC(N(C)C)C3)c3nnn([C@H]4CCN(C(=O)/C=C/C(F)F)[C@H](CC#N)C4)c32)c1F [Example 201a, 2-((2S,4S)-4-(8-chloro-7-(6-chloro-5-methyl-1H-indazol-4-yl)-4-(3-(dimethylamino)azetidin-1-yl)-6-fluoro-1H-[1,2,3]triazolo[4,5-c]quinolin-1-yl)-1-((E)-4,4-difluorobut-2-enoyl)piperidin-2-yl)acetonitrile] | ≤ 0.1 µM | ≤ 0.1 µM |
| C=CC(=O)N1CC[C@H](n2nnc3c(N4CC(C)(N(C)C)C4)nc4c(F)c(-c5c(C)c(F)cc6[nH]ncc56)c(C)cc4c32)C[C@H]1CC#N [Example 202a, 2-((2S,4S)-1-acryloyl-4-(4-(3-(dimethylamino)-3-methylazetidin-1-yl)-6-fluoro-7-(6-fluoro-5-methyl-1H-indazol-4-yl)-8-methyl-1H-[1,2,3]triazolo[4,5-c]quinolin-1-yl)piperidin-2-yl)acetonitrile] | ≤ 0.1 µM | ≤ 0.1 µM |
| COC/C=C/C(=O)N1CC[C@H](n2nnc3c(N4CC(C)(N(C)C)C4)nc4c(F)c(-c5c(C)c(F)cc6[nH]ncc56)c(C)cc4c32)C[C@H]1CC#N [Example 203a, 2-((2S,4S)-4-(4-(3-(dimethylamino)-3-methylazetidin-1-yl)-6-fluoro-7-(6-fluoro-5-methyl-1H-indazol-4-yl)-8-methyl-1H-[1,2,3]triazolo[4,5-c]quinolin-1-yl)-1-((E)-4-methoxybut-2-enoyl)piperidin-2-yl)acetonitrile] | ≤ 0.1 µM | ≤ 0.1 µM |
| CC#CC(=O)N1CC[C@H](n2nnc3c(OC[C@@H]4CCCN4C)nc4c(F)c(-c5cccc(Cl)c5OC)c(CCC#N)cc4c32)C[C@H]1CC#N [Example 204, 3-(1-((2S,4S)-1-(but-2-ynoyl)-2-(cyanomethyl)piperidin-4-yl)-7-(3-chloro-2-methoxyphenyl)-6-fluoro-4-(((S)-1-methylpyrrolidin-2-yl)methoxy)-1H-[1,2,3]triazolo[4,5-c]quinolin-8-yl)propanenitrile] | ≤ 0.1 µM | ≤ 0.1 µM |
| Cc1cccc(-c2c(C)cc3c(nc(N4CC(N(C)C)C4)c4nnn([C@H]5CCN(C(=O)/C=C/CF)[C@H](CC#N)C5)c43)c2F)c1C [Example 206, 2-((2S,4S)-4-(4-(3-(dimethylamino)azetidin-1-yl)-7-(2,3-dimethylphenyl)-6-fluoro-8-methyl-1H-[1,2,3]triazolo[4,5-c]quinolin-1-yl)-1-((E)-4-fluorobut-2-enoyl)piperidin-2-yl)acetonitrile] | ≤ 0.1 µM | ≤ 0.1 µM |
| CC#CC(=O)N1CC[C@H](n2nnc3c(N4CC(N(C)C)C4)nc4c(F)c(-c5cccc(C)c5C)c(C)cc4c32)C[C@H]1CC#N [Example 207, 2-((2S,4S)-1-(but-2-ynoyl)-4-(4-(3-(dimethylamino)azetidin-1-yl)-7-(2,3-dimethylphenyl)-6-fluoro-8-methyl-1H-[1,2,3]triazolo[4,5-c]quinolin-1-yl)piperidin-2-yl)acetonitrile] | ≤ 0.1 µM | ≤ 0.1 µM |
| C=CC(=O)N1CC[C@H](n2nnc3c(N4CC(C)(N(C)C)C4)nc4c(F)c(-c5cccc(C)c5C)c(C)cc4c32)C[C@H]1CC#N [Example 208, 2-((2S,4S)-1-acryloyl-4-(4-(3-(dimethylamino)-3-methylazetidin-1-yl)-7-(2,3-dimethylphenyl)-6-fluoro-8-methyl-1H-[1,2,3]triazolo[4,5-c]quinolin-1-yl)piperidin-2-yl)acetonitrile] | ≤ 0.1 µM | ≤ 0.1 µM |
| Cc1cccc(-c2c(C)cc3c(nc(N4CC(C)(N(C)C)C4)c4nnn([C@H]5CCN(C(=O)/C=C/CF)[C@H](CC#N)C5)c43)c2F)c1C [Example 209, 2-((2S,4S)-4-(4-(3-(dimethylamino)-3-methylazetidin-1-yl)-7-(2,3-dimethylphenyl)-6-fluoro-8-methyl-1H-[1,2,3]triazolo[4,5-c]quinolin-1-yl)-1-((E)-4-fluorobut-2-enoyl)piperidin-2-yl)acetonitrile] | ≤ 0.1 µM | ≤ 0.1 µM |
| C=CC(=O)N1CCC(n2nnc3c(OC[C@@H]4CCCN4C)nc4c(F)c(-c5cccc(C)c5)c(Cl)cc4c32)C[C@H]1CC#N (stereo partly drawn) [Example 210, 2-((2S)-1-acryloyl-4-(8-chloro-6-fluoro-4-(((S)-1-methylpyrrolidin-2-yl)methoxy)-7-(m-tolyl)-1H-[1,2,3]triazolo[4,5-c]quinolin-1-yl)piperidin-2-yl)acetonitrile] | ≤ 0.1 µM | ≤ 0.1 µM |
| C=CC(=O)N1CCC(n2nnc3c(N4CC(C)(N(C)C)C4)nc4c(F)c(-c5cccc(C)c5)c(Cl)cc4c32)C[C@H]1CC#N (stereo partly drawn) [Example 211, 2-((2S)-1-acryloyl-4-(8-chloro-4-(3-(dimethylamino)-3-methylazetidin-1-yl)-6-fluoro-7-(m-tolyl)-1H-[1,2,3]triazolo[4,5-c]quinolin-1-yl)piperidin-2-yl)acetonitrile] | ≤ 0.1 µM | ≤ 0.1 µM |
| CN(C)C/C=C/C(=O)N1CCC(n2nnc3c(N4CC(C)(N(C)C)C4)nc4c(F)c(-c5cccc6cccc(Cl)c56)c(Cl)cc4c32)C[C@H]1CC#N (stereo partly drawn) [Example 217, 2-((2S)-4-(8-chloro-7-(8-chloronaphthalen-1-yl)-4-(3-(dimethylamino)-3-methylazetidin-1-yl)-6-fluoro-1H-[1,2,3]triazolo[4,5-c]quinolin-1-yl)-1-((E)-4-(dimethylamino)but-2-enoyl)piperidin-2-yl)acetonitrile] | ≤ 0.1 µM | ≤ 0.1 µM |
| CC#CC(=O)N1CCC(n2cnc3c(N4CC(C)(N(C)C)C4)nc4c(F)c(-c5cccc6cccc(Cl)c56)c(C)cc4c32)C[C@H]1CC#N (stereo partly drawn) [Example 222, 2-((2S)-1-(but-2-ynoyl)-4-(7-(8-chloronaphthalen-1-yl)-4-(3-(dimethylamino)-3-methylazetidin-1-yl)-6-fluoro-8-methyl-1H-imidazo[4,5-c]quinolin-1-yl)piperidin-2-yl)acetonitrile] | ≤ 0.1 µM | ≤ 0.1 µM |
| C=CC(=O)N1CCC(n2nnc3c(N4CC(C)(N(C)C)C4)nc4c(F)c(-c5cccc6cccc(Cl)c56)c(C)cc4c32)C[C@H]1CC#N (stereo partly drawn) [Example 225, 2-((2S)-1-acryloyl-4-(7-(8-chloronaphthalen-1-yl)-4-(3-(dimethylamino)-3-methylazetidin-1-yl)-6-fluoro-8-methyl-1H-[1,2,3]triazolo[4,5-c]quinolin-1-yl)piperidin-2-yl)acetonitrile] | ≤ 0.1 µM | ≤ 0.1 µM |
| CC#CC(=O)N1CC[C@H](n2nnc3c(N4CC(C)(N(C)C)C4)nc4c(F)c(-c5cccc(C)c5C)c(C)cc4c32)C[C@H]1CC#N [Example 226, 2-((2S,4S)-1-(but-2-ynoyl)-4-(4-(3-(dimethylamino)-3-methylazetidin-1-yl)-7-(2,3-dimethylphenyl)-6-fluoro-8-methyl-1H-[1,2,3]triazolo[4,5-c]quinolin-1-yl)piperidin-2-yl)acetonitrile] | ≤ 0.1 µM | ≤ 0.1 µM |
| C=CC(=O)N1CC[C@H](n2cnc3c(N4CC(N(C)C)C4)nc4c(F)c(-c5ccc(F)c6cccnc56)c(C(F)(F)F)cc4c32)C[C@H]1CC#N [Example 229, 2-((2S,4S)-1-acryloyl-4-(4-(3-(dimethylamino)azetidin-1-yl)-6-fluoro-7-(5-fluoroquinolin-8-yl)-8-(trifluoromethyl)-1H-imidazo[4,5-c]quinolin-1-yl)piperidin-2-yl)acetonitrile] | ≤ 0.1 µM | ≤ 0.1 µM |
| Cc1c(Cl)cc2[nH]ncc2c1-c1c(CCC#N)cc2c(nc(N3CC(N(C)C)C3)c3nnn([C@H]4CCN(C(=O)/C=C/CN(C)C)[C@H](CC#N)C4)c32)c1F [Example 232, 3-(7-(6-chloro-5-methyl-1H-indazol-4-yl)-1-((2S,4S)-2-(cyanomethyl)-1-((E)-4-(dimethylamino)but-2-enoyl)piperidin-4-yl)-4-(3-(dimethylamino)azetidin-1-yl)-6-fluoro-1H-[1,2,3]triazolo[4,5-c]quinolin-8-yl)propanenitrile] | ≤ 0.1 µM | ≤ 0.1 µM |

— patent US20210269434A1, “TRICYCLIC COMPOUNDS AS INHIBITORS OF KRAS” (Incyte Corporation, priority 2020, published 2021)
